Assay results from ChEMBL document CHEMBL1201862, “PubChem BioAssay data set” (2004).
The source made the active and inactive calls.

Legend:
[1] = biological target: T1, Replicative DNA helicase DnaB (Mycobacterium tuberculosis, UniProt P9WMR3); experiment: DnaB intein splicing inhibitors, dose response, biochemical, cell-free fluorescence (AID 449749); assay type: functional
T1 sequence (P9WMR3 whole entry): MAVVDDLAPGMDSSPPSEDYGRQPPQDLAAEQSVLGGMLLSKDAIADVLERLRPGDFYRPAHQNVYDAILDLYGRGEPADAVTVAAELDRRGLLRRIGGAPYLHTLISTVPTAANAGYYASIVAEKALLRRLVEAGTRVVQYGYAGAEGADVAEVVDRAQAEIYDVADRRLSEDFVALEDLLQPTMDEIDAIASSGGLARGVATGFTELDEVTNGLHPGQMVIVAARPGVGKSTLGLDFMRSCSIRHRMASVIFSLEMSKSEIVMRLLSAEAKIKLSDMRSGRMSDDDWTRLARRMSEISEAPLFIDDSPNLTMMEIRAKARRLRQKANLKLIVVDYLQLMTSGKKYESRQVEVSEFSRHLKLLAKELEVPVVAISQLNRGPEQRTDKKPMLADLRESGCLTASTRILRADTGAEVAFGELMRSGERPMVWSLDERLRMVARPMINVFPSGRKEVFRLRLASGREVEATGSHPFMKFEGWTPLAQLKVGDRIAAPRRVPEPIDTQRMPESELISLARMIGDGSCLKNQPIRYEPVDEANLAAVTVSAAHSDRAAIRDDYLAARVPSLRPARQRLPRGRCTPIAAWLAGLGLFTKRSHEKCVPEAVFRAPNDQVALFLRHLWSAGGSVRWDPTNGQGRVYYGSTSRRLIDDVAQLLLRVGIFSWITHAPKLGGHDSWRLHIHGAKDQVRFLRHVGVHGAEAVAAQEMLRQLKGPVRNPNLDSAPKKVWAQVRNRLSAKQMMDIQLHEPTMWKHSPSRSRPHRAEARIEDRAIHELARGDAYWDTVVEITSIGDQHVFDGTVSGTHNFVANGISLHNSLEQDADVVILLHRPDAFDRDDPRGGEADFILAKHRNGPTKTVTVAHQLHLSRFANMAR

Protein RecA = biological target: T2, Protein RecA (Mycobacterium tuberculosis, UniProt P9WHJ3); experiment: Fluorescence Cell-Free Homogeneous Dose Retest to Identify Inhibitors of RecA-Intein Splicing Activity. [Related pubchem assays (depositor defined):AID2097, AID2223, AID489010, AID492950]; assay type: functional
T2 sequence (P9WHJ3 whole entry): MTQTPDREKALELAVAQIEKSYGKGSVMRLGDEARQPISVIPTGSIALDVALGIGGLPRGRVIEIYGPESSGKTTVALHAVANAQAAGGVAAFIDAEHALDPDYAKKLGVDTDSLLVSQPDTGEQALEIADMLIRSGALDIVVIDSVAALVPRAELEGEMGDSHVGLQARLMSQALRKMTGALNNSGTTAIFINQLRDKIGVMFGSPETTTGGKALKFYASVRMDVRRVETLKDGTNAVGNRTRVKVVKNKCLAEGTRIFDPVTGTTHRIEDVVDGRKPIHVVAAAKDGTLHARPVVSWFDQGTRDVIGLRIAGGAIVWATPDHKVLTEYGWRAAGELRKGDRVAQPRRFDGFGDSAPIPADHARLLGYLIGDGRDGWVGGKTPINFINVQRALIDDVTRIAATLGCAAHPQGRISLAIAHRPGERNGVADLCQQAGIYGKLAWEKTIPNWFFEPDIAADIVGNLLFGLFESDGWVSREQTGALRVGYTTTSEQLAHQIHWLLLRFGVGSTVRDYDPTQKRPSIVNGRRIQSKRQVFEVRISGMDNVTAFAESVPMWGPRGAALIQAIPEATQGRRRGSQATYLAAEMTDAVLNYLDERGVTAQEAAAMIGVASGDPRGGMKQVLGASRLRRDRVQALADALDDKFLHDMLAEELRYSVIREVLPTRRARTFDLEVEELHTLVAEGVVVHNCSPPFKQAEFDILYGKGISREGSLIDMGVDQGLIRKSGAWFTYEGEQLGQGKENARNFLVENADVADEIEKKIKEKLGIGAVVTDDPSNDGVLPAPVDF

Cytochrome P450 2C19 = Cytochrome P450 2C19 (Homo sapiens, UniProt P33261); experiment: Cytochrome panel assay with activity outcomes. Panel member name: p450-cyp2c19 Compounds with AC50 equal or less than 10 uM are considered active; assay type: functional
Cytochrome P450 2D6 = Cytochrome P450 2D6 (Homo sapiens, UniProt P10635);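 note: CYP2D6 member of a cytochrome P450 panel assay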
Cytochrome P450 2C9 = Cytochrome P450 2C9 (Homo sapiens, UniProt P11712)
[2] = viability of uninfected HEp-2 cells – cell-based, HTS, cytotoxicity control for RSV inhibitor project, dose response (AID 2410); assay type: functional; settings: human respiratory syncytial virus
[3] = biological target: T3, Corticotropin-releasing factor receptor 2/Corticotropin-releasing factor-binding protein (Homo sapiens, UniProt P24387+Q13324); experiment: Dose Response confirmation of uHTS hits for small molecule antagonists of the CRF-binding protein and CRF-R2 receptor complex.; assay type: functional; settings: read-out: IC50_Mean
T3 sequence (Q13324 whole entry): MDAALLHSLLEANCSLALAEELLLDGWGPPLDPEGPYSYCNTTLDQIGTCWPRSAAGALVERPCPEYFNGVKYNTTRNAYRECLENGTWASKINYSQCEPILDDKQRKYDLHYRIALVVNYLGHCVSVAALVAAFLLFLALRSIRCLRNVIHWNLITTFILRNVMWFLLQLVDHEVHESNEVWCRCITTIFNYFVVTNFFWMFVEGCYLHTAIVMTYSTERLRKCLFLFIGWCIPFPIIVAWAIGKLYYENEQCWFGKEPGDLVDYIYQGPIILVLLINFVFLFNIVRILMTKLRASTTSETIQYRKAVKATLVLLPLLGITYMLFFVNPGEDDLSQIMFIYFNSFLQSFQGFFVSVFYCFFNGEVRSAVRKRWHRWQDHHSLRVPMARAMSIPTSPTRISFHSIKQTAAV
T3 sequence (P24387 whole entry): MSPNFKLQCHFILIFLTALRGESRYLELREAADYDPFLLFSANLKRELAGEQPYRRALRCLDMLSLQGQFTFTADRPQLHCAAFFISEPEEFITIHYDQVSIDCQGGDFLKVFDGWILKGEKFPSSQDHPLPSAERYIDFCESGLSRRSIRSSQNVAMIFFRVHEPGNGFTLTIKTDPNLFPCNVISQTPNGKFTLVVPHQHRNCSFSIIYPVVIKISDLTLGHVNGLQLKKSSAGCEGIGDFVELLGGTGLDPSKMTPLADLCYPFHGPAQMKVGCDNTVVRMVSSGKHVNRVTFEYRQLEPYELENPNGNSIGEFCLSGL

[4] = biological target: T3, Corticotropin-releasing factor receptor 2/Corticotropin-releasing factor-binding protein; experiment: activators of CRF receptor 2 with binding protein – uHTS hits, confirmation (AID 602473); assay type: functional; settings: read-out: EC50_Mean
[5] = Trypanosoma cruzi growth suppression in host cells – NIH3T3 host cells, beta-gal luminescence, confirmation (AID 2044); assay type: functional, cell-based;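 note: intracellular parasites grown in NIH/3T3 mouse fibroblasts as host cells; luminescent beta-galactosidase reporter signal from transgenic T. cruzi replicating inside host cells; inhibitors lower the luminescence signal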
[6] = NIH3T3 cell viability loss – ATP luminescence, mouse fibroblasts, counter-screen, dose response (AID 2010); assay type: functional, cell-based;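 note: cells exposed to compound for about 90 hours before reading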

Cytochrome P450 2C19, sequence (P33261 whole entry): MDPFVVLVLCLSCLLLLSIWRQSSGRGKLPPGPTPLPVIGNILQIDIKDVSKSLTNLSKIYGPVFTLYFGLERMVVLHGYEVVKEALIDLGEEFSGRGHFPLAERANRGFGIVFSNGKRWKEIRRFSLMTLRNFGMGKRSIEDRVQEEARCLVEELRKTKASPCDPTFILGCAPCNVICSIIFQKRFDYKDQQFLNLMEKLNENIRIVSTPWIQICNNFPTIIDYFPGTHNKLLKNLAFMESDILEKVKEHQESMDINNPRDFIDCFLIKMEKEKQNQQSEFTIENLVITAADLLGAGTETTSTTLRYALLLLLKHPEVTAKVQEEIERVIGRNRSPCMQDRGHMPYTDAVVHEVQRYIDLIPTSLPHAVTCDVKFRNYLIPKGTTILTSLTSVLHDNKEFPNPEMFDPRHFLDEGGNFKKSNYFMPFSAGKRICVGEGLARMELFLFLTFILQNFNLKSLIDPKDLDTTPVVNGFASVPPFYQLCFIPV
Cytochrome P450 2C9, sequence (P11712 whole entry): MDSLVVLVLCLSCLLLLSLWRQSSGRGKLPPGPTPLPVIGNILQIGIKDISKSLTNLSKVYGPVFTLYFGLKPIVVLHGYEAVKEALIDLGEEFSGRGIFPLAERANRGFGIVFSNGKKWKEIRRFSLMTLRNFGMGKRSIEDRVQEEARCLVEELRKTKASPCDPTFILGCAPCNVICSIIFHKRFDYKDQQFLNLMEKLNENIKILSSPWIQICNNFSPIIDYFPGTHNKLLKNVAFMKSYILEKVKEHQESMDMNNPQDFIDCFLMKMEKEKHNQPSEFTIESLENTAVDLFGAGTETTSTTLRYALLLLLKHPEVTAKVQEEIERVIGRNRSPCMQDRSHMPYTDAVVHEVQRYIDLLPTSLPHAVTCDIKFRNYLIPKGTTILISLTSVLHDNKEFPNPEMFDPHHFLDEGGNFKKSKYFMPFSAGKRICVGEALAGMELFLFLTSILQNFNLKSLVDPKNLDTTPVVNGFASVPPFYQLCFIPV
Cytochrome P450 2D6, sequence (P10635 whole entry): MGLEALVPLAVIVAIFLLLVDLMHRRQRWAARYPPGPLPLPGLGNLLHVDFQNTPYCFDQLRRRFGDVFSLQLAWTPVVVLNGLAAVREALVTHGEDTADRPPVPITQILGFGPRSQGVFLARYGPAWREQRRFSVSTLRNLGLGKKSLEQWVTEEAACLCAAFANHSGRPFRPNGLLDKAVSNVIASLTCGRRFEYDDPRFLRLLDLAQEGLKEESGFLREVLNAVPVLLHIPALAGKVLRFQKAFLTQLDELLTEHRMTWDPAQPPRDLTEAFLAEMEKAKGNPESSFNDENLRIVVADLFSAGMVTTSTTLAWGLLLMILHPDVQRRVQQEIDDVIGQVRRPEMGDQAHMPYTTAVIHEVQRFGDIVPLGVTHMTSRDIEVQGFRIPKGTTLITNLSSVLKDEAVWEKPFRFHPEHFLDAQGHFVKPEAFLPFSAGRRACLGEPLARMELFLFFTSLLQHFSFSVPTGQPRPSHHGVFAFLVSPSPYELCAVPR

For `Cc1ccccc1-c1nc(CN(C)C(C)c2ccon2)c(C)o1` (stereo not drawn), the AC50 [1] was 3.11 µM (active) and the EC50 (Protein RecA) was 1.15 µM (active).
In the case of `CC1CCN(CCCn2c(=S)[nH]c3ccc(N4CCOCC4)cc3c2=O)CC1`, the AC50 (Cytochrome P450 2C19) is reported as “inconclusive”, the AC50 (Cytochrome P450 2D6) is reported as 22.4 µM (inconclusive) and the AC50 (Cytochrome P450 2C9) is reported as 20 µM (inconclusive).
In the case of `C[N@+]1(CCC(=O)c2ccccc2)CC[C@H]2CC[C@H](C2)C1`, the AC50 (Cytochrome P450 2C19) is reported as “inconclusive”.
With `CC(C)C(NS(=O)(=O)c1cccs1)C(=O)Nc1nc(C(C)(C)C)cs1` (stereo not drawn) the CC50 [2] was 13.5 µM (active).
With `COc1cccc(C(=O)NCCN2CCOCC2)c1` the AC50 (Cytochrome P450 2C19; read-out: AC50) was 20 µM (inconclusive) and the AC50 (Cytochrome P450 2C9) was 3.55 µM (inconclusive).
In the case of `Cc1cc(N)n2ncc(-c3cccc(Br)c3)c2n1`, the CC50 [2] is reported as > 50 µM (active).
For `Cc1nc(N2CCOCC2)c(C#N)c(C)c1Br`, the CC50 [2] was 30.6 µM (active).
With `COc1ccc(C(=O)N2CCCCC2)cc1S(=O)(=O)Nc1ccccc1` the AC50 (Cytochrome P450 2C9) was 14.1 µM (inconclusive).
With `Cc1cccc(CNc2ncnc3ccc(-c4ccccc4C#N)cc23)c1` the AC50 (Cytochrome P450 2C9) was 0.501 µM (inconclusive).
With `O=C(Cc1cc(O)n[nH]1)N/N=C/c1cccc2ccccc12` the AC50 [1] was 4.55 µM (active) and the EC50 (Protein RecA) was 0.694 µM (active).
With `CC(=O)c1ccccc1OCCCOc1cccc2cccnc12` the CC50 [2] was 21.4 µM (active).
In the case of `CN(C)c1ccc(-c2nc(NCCc3cnc[nH]3)c3ccccc3n2)cc1`, the AC50 (Cytochrome P450 2C9) is reported as 0.794 µM (inconclusive).
With `O=C(O)c1ccc([N+](=O)[O-])c2c1C(=O)c1ccccc1C2=O` the AC50 [1] was 29 µM (active) and the EC50 (Protein RecA) was 6.78 µM (active).
With `C#CCOc1ccc2c3c(c(=O)oc2c1)CCCC3` the CC50 [2] was 43.7 µM (active).
With `NC(=O)[C@H]1CC2(CC(c3cccc(NC(=O)c4ccccc4)c3)=NO2)CN1C(=O)[C@H]1CCC(=O)N1` (stereo partly drawn) the AC50 (Cytochrome P450 2C19) was “inconclusive”.
In the case of `C=CCc1cccc(CNc2nc3ccccc3n2C)c1O`, the CC50 [2] is reported as 25.9 µM (active).
For `CC(C)(C)C(=O)Nc1ccc(C(=O)OC2CCCCC2)cc1`, the CC50 [2] was 37.3 µM (active).
With `Cc1n[nH]c2c1C1(CCOCC1)C(C#N)=C(N)O2` the AC50 [1] was 3.57 µM (active) and the EC50 (Protein RecA) was 2.83 µM (active).
For `CN1CCN(c2ccc([N+](=O)[O-])cc2C(=O)N2CCOCC2)CC1`, the AC50 (Cytochrome P450 2C19) was “inconclusive”.
For `O=C(Nc1cccnc1)c1ccc(-c2ccc(Cl)cc2)o1`, the IC50 [3] was > 47.1 µM (inactive) and the EC50 [4] was > 53 µM (inactive).
With `Cc1cc(C)c2nc(NC(=O)c3ccc4c(=O)n5c(nc4c3)CCCCC5)sc2c1` the IC50 [3] was > 47.1 µM (inactive) and the EC50 [4] was > 53 µM (inactive).
In the case of `COC1=C(C)C(=O)c2c(c(COC(N)=O)c3n2C[C@@H]2[C@@H]3N2C)C1=O` (stereo partly drawn), the AC50 (Cytochrome P450 2C19; read-out: AC50) is reported as 0.794 µM (inconclusive).
For `COCCNc1nc(-c2ccccc2Cl)nc2ccccc12`, the AC50 (Cytochrome P450 2C19; read-out: AC50) was 0.0316 µM (inconclusive).
With `O=P(O)(COc1ccccc1)COc1ccccc1` the AC50 (Cytochrome P450 2C19; read-out: AC50) was 28.2 µM (inconclusive) and the AC50 (Cytochrome P450 2C9) was 14.1 µM (inconclusive).
In the case of `CC(C(=O)Nc1sccc1C(N)=O)N1C(=O)C2CC=CCC2C1=O` (stereo not drawn), the IC50 [3] is reported as > 47.1 µM (inactive) and the EC50 [4] is reported as > 53 µM (inactive).
In the case of `CC(C)(C)c1ccccc1OCCN1CCCC1`, the EC50 [5] is reported as 1.35 µM (active), the EC50 [6] is reported as > 60 µM (not active) and the AC50 (Cytochrome P450 2C19; read-out: AC50) is reported as 35.5 µM (inconclusive).
In the case of `COc1ccc(-c2cc(C(F)(F)F)nc(N3CCCCCC3)n2)cc1`, the CC50 [2] is reported as 28.2 µM (active).
In the case of `Cc1ccc(Nc2c(O)ncnc2O)cc1`, the IC50 [3] is reported as > 47.1 µM (inactive) and the EC50 [4] is reported as > 53 µM (inactive).
For `Cc1cc(C)n(-c2ccc(Cl)c(C(=O)O)n2)n1`, the AC50 (Cytochrome P450 2C19; read-out: AC50) was 6.31 µM (inconclusive) and the AC50 (Cytochrome P450 2C9) was 4.47 µM (inconclusive).
In the case of `CC1=C(C)CC2(SC1)C(=O)N(c1ccccc1)N=C2N` (stereo not drawn), the AC50 [1] is reported as 10.3 µM (active) and the EC50 (Protein RecA) is reported as 3.4 µM (active).
For `O=C1C(Cl)=C(N2CCCCC2)C(=O)N1c1ccccc1Cl`, the AC50 [1] was 4.64 µM (active) and the EC50 (Protein RecA) was 2.45 µM (active).
In the case of `COc1ccccc1OCC(=O)NCC1CCCN(C(=O)c2ccccc2C(C)=O)C1` (stereo not drawn), the IC50 [3] is reported as > 47.1 µM (inactive) and the EC50 [4] is reported as > 53 µM (inactive).
With `O=[N+]([O-])c1cc(-c2nnc(C34CC5CC(CC(C5)C3)C4)o2)cc([N+](=O)[O-])c1` the CC50 [2] was > 50 µM (active), the EC50 [5] was 0.77 µM (active) and the EC50 [6] was > 60 µM (not active).
With `O=C1Nc2ccccc2/C1=N/NS(=O)(=O)c1ccc(C(=O)O)cc1` the AC50 (Cytochrome P450 2C19) was “inconclusive”.
In the case of `N#Cc1cccc(-c2cncnc2NCc2cccs2)c1`, the AC50 (Cytochrome P450 2D6) is reported as 31.6 µM (inconclusive) and the AC50 (Cytochrome P450 2C9) is reported as 0.501 µM (inconclusive).
In the case of `O=C(CCn1c(=O)[nH]c2ccsc2c1=O)Nc1ccc(F)c(F)c1`, the AC50 (Cytochrome P450 2C9) is reported as 2.82 µM (inconclusive).
In the case of `Cc1nc2cnc(Oc3cccc(Cl)c3)nc2n(Cc2ccc(F)cc2)c1=O`, the AC50 (Cytochrome P450 2C19; read-out: AC50) is reported as 31.6 µM (inconclusive).
